This note sets out measurements from ChEMBL document CHEMBL5247626, “In vitro and in vivo biological evaluation of newly synthesized multi-target 20(R)-panaxadiol derivatives for treating Alzheimer's disease” (Eur J Med Chem, 2022).

Data set [1] in a line: Permeability of the compound incubated for 4 hrs by PAMPA-BBB assay based HPLC analysis.
Data set [2] addresses Amyloid-beta precursor protein (Homo sapiens) (UniProt P05067). As to the kind of experiment: Disaggregation of amyloid beta (25 to 35) (unknown origin) self aggregation at 15 uM incubated for 24 hrs by transmission electron microscopy analysis.
In data set [3] the test system is PC-12. As to the kind of experiment: Neuroprotective activity against amyloid beta (25 to 35)-induced rat PC12 cells assessed as decrease in tau hyperphosphorylation at Thr181 at 15 uM preincubated for 30 mins followed by amyloid beta (25 to 35) addition and measured after 24 hrs by western blot assay. To be noted: time 24.5 hrs. The format is functional, cell-based. Background: A western blot detects proteins with antibodies after separation by electrophoresis.

Data set [4] concerns Mus musculus. As to the kind of experiment: Antialzheimer activity against amyloid beta (25 to 35)-induced cognitive deficit ICR mouse model assessed as effect on total number of arm enteries at 1.3 mg/kg,po observed after 11 days of administration by Y maze test. The format is functional, organism-based. To be noted: time 11.0 day.
For data set [5], the system named is Mus musculus. In words: Antialzheimer activity against amyloid beta (25 to 35)-induced cognitive deficit ICR mouse model assessed as attenuation of behavioral deficit at 1.3 mg/kg,po observed after 12 to 15 days of administration by Y maze test. The format is functional, organism-based. To be noted: time 12-15 day.
The subject of data set [6] is Mus musculus. As to the kind of experiment: Antialzheimer activity against amyloid beta (25 to 35)-induced cognitive deficit ICR mouse model assessed as increase in preferential index at 1.3 mg/kg,po observed after 1 hr of administration by novel object recognition test. The format is functional, organism-based.
Data set [7] has as its system Mus musculus. In words: Antialzheimer activity against amyloid beta (25 to 35)-induced cognitive deficit ICR mouse model assessed as increase in discrimination index at 1.3 mg/kg,po observed after 24 hrs of administration by novel object recognition test. The format is functional, organism-based.
The test system of data set [8] is Mus musculus. In words: Antialzheimer activity against amyloid beta (25 to 35)-induced cognitive deficit ICR mouse model assessed as increase in discrimination index at 1.3 mg/kg,po observed after 1 hr of administration by novel object recognition test. The format is functional, organism-based.
Data set [9] relates to Mus musculus. As to the kind of experiment: Antialzheimer activity against amyloid beta (25 to 35)-induced spatial memory deficit ICR mouse model assessed as increase in distance travelled in target quadrant at 1.3 mg/kg,po observed at 16 to 20 days of administration by morris water maze test. The format is functional, organism-based. To be noted: time 16-20 day.
The subject of data set [10] is Mus musculus. In words: Antialzheimer activity against amyloid beta (25 to 35)-induced cognitive deficit ICR mouse model assessed as increase in preferential index at 1.3 mg/kg,po observed after 24 hrs of administration by novel object recognition test. The format is functional, organism-based.
Data set [11] concerns PC-12. As to the kind of experiment: Neuroprotective activity against amyloid beta (25 to 35)-induced rat PC12 cells assessed as decrease in total tau protein expression level at 15 uM preincubated for 30 mins followed by amyloid beta (25 to 35) addition and measured after 24 hrs by western blot assay. To be noted: time 24.5 hrs. The format is functional, cell-based.
Data set [12] deals with Mus musculus. As to the kind of experiment: Antialzheimer activity against amyloid beta (25 to 35)-induced spatial memory deficit ICR mouse model assessed as increase in exploration time spent at 1.3 mg/kg,po observed at 16 to 20 days of administration by morris water maze test. The format is functional, organism-based. To be noted: time 16-20 day.
Data set [13] has as its system PC-12. As to the kind of experiment: Neuroprotective activity against rat PC12 cells assessed as reduction in amyloid beta (25 to 35)-induced cytotoxicity at 15 uM incubated for 4 hrs followed by amyloid beta (25 to 35) treatment for 24 hrs by MTT assay relative to control. The format is functional. Details: scale not given: the % may be the effect or the level left. To be noted: time 28 hrs.

Data set [14] concerns PC-12. As to the kind of experiment: Neuroprotective activity against amyloid beta (25 to 35)-induced rat PC12 cells assessed as decrease in intracellular ROS level at 7.5 uM incubated for 24 hrs by DCFH-DA staining based flow cytometry assay. The format is functional, cell-based. (In flow cytometry, cells or beads pass a laser one at a time.)
Data set [15] relates to PC-12. In words: Neuroprotective activity against amyloid beta (25 to 35)-induced rat PC12 cells assessed as reduction in amyloid beta (25 to 35)-induced apoptosis rate at 15 uM incubated for 15 mins by Annexin V-FITC/PI staining based flow cytometric analysis (reference value: 2.9%). The format is functional. Details: scale not given: the % may be the effect or the level left. To be noted: 0.25 h.

The structures appear in SMILES notation. The source made the active and inactive calls. The rule behind the calls is not given here.

What is called Papp is the rate of passage across a membrane or cell layer, normalised by area and donor concentration.

Sequence of Amyloid-beta precursor protein (Homo sapiens) (P05067 whole entry): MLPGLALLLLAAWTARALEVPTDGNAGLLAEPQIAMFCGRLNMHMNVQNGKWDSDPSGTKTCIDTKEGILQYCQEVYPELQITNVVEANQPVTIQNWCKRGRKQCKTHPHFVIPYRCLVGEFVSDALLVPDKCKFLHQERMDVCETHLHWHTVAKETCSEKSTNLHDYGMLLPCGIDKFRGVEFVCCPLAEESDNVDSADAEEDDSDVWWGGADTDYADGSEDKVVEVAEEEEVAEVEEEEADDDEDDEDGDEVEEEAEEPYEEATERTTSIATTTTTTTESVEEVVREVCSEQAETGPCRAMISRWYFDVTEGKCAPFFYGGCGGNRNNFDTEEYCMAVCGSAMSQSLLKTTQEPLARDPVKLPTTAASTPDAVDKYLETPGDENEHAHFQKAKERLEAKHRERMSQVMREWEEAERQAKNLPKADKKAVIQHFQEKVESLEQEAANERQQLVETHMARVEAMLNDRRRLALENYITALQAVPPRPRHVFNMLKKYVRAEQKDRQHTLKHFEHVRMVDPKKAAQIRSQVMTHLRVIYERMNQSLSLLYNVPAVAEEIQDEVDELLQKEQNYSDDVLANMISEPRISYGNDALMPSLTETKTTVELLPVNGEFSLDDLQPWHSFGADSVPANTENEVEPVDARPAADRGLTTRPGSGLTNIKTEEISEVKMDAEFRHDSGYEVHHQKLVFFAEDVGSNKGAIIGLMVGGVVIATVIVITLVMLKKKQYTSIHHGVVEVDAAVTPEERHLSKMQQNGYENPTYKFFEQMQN

Compound `NC(=O)N1c2ccccc2C=Cc2ccccc21` [CARBAMAZEPINE] had a Papp at 4 h in [1] of 8.78 ×10⁻⁶ cm/s.

Take `COc1cc(/C=C/C(=O)CC(=O)/C=C/c2ccc(O)c(OC)c2)ccc1O`: in data set [2], the outcome was Active.

In the case of `COc1cc2c(cc1OC)C(=O)C(CC1CCN(Cc3ccccc3)CC1)C2` (configuration not stated), the outcome in the data set on PC-12 [3], in the data set with Mus musculus [5], in the data set on Mus musculus [7], with Mus musculus [9], in the data set on Mus musculus [10] and in the data set with PC-12 [11] was Active. In addition, the result in the data set with Mus musculus [12] was Active. Also, the result with Mus musculus [4], with Mus musculus [6] and in the data set with Mus musculus [8] was inactive.

Take `CC1(C)CCC[C@](C)([C@H]2CC[C@]3(C)[C@@H]2[C@H](O)C[C@@H]2[C@@]4(C)CC[C@H](OC(=O)CN5CCN(Cc6ccccc6)CC5)C(C)(C)[C@@H]4CC[C@]23C)O1.Cl`: the Activity in the data set on PC-12 [13] is reported as 37.37%.

As to `CC1(C)CCC[C@](C)([C@H]2CC[C@]3(C)[C@@H]2[C@H](O)C[C@@H]2[C@@]4(C)CC[C@H](OC(=O)c5cn(-c6ccc(F)cc6)nn5)C(C)(C)[C@@H]4CC[C@]23C)O1`, the Activity in the data set on PC-12 [13] amounted to 33.68%.

Regarding `Cc1ccc(NC(=O)O[C@H]2CC[C@]3(C)[C@H]4C[C@@H](O)[C@@H]5[C@@H]([C@@]6(C)CCCC(C)(C)O6)CC[C@@]5(C)[C@]4(C)CC[C@H]3C2(C)C)cc1`, in the data set on PC-12 [13], the Activity came out at 64.13%.

In the case of `COC(=O)[C@H](NC(=O)CCC(=O)O[C@H]1CC[C@]2(C)[C@H]3C[C@@H](O)[C@@H]4[C@@H]([C@@]5(C)CCCC(C)(C)O5)CC[C@@]4(C)[C@]3(C)CC[C@H]2C1(C)C)c1ccccc1`, the Activity in the data set on PC-12 [13] was found to be 22.85%.

Regarding `CC1(C)CCC[C@](C)([C@H]2CC[C@]3(C)[C@@H]2[C@H](O)C[C@@H]2[C@@]4(C)CC[C@H](OC(=O)c5cn(-c6ccc([N+](=O)[O-])cc6)nn5)C(C)(C)[C@@H]4CC[C@]23C)O1`, in the data set with PC-12 [13], the Activity is 23.76%.

Turning to `CC(C)NC(=O)O[C@H]1CC[C@]2(C)[C@H]3C[C@@H](O)[C@@H]4[C@@H]([C@@]5(C)CCCC(C)(C)O5)CC[C@@]4(C)[C@]3(C)CC[C@H]2C1(C)C`, the Activity with PC-12 [13] is reported as 69.45%.

For the compound `CCNC(=O)O[C@H]1CC[C@]2(C)[C@H]3C[C@@H](O)[C@@H]4[C@@H]([C@@]5(C)CCCC(C)(C)O5)CC[C@@]4(C)[C@]3(C)CC[C@H]2C1(C)C`, in the data set with PC-12 [13], the Activity amounted to 65.69%.

As for `COC(=O)[C@@H](CC(C)C)NC(=O)CCC(=O)O[C@H]1CC[C@]2(C)[C@H]3C[C@@H](O)[C@@H]4[C@@H]([C@@]5(C)CCCC(C)(C)O5)CC[C@@]4(C)[C@]3(C)CC[C@H]2C1(C)C`, the Activity with PC-12 [13] came to 16.07%.

As for `C=CCNC(=O)O[C@H]1CC[C@]2(C)[C@H]3C[C@@H](O)[C@@H]4[C@@H]([C@@]5(C)CCCC(C)(C)O5)CC[C@@]4(C)[C@]3(C)CC[C@H]2C1(C)C`, the Activity with PC-12 [13] is recorded as 70.06%.

Consider `CC1(C)CCC[C@](C)([C@H]2CC[C@]3(C)[C@@H]2[C@H](O)C[C@@H]2[C@@]4(C)CC[C@H](OC(=O)/C=C/c5ccccc5)C(C)(C)[C@@H]4CC[C@]23C)O1`, for which the Activity with PC-12 [13] came out at 22.78%.

In the case of `CC1(C)CCC[C@](C)([C@H]2CC[C@]3(C)[C@@H]2[C@H](O)C[C@@H]2[C@@]4(C)CC[C@H](OC(=O)/C=C/c5ccc(N6CCOCC6)cc5)C(C)(C)[C@@H]4CC[C@]23C)O1`, in the data set on PC-12 [13], the Activity was found to be 32.75%.

For `COC(=O)[C@@H](Cc1ccccc1)NC(=O)CCC(=O)O[C@H]1CC[C@]2(C)[C@H]3C[C@@H](O)[C@@H]4[C@@H]([C@@]5(C)CCCC(C)(C)O5)CC[C@@]4(C)[C@]3(C)CC[C@H]2C1(C)C`, the Activity in the data set on PC-12 [13] is listed as 33.77%.

For the compound `COc1ccc(NC(=O)O[C@H]2CC[C@]3(C)[C@H]4C[C@@H](O)[C@@H]5[C@@H]([C@@]6(C)CCCC(C)(C)O6)CC[C@@]5(C)[C@]4(C)CC[C@H]3C2(C)C)cc1`, the Activity with PC-12 [13] amounted to 65.27%.

In the case of `COc1cc(/C=C/C(=O)O[C@H]2CC[C@]3(C)[C@H]4C[C@@H](O)[C@@H]5[C@@H]([C@@]6(C)CCCC(C)(C)O6)CC[C@@]5(C)[C@]4(C)CC[C@H]3C2(C)C)cc(OC)c1OC`, in the data set on PC-12 [13], the Activity worked out at 36.23%.

On to `CC1(C)CCC[C@](C)([C@H]2CC[C@]3(C)[C@@H]2[C@H](O)C[C@@H]2[C@@]4(C)CC[C@H](OC(=O)c5cn(-c6ccc(Cl)cc6)nn5)C(C)(C)[C@@H]4CC[C@]23C)O1`, for which the Activity with PC-12 [13] was 36.15%.

Regarding `CC1(C)CCC[C@](C)([C@H]2CC[C@]3(C)[C@@H]2[C@H](O)C[C@@H]2[C@@]4(C)CC[C@H](OC(=O)CN5CCCCC5)C(C)(C)[C@@H]4CC[C@]23C)O1.Cl`, the Activity in the data set with PC-12 [13] is given as 12.66%.

With `CC1(C)CCC[C@](C)([C@H]2CC[C@]3(C)[C@@H]2[C@H](O)C[C@@H]2[C@@]4(C)CC[C@H](O)C(C)(C)[C@@H]4CC[C@]23C)O1` [PANAXADIOL], the outcome in the data set on PC-12 [3], with PC-12 [14] and with PC-12 [11] was Active. In addition, the Activity in the data set with PC-12 [15] is 5.4%.
